The record followed here is article PMC9571049 (Molecules, 2022).

The target in data set [1] is H1N1 NA (A/PuertoRico/8/1934) (Influenza A virus, UniProt P03468). Description: biochemical.
Sequence of H1N1 NA (A/PuertoRico/8/1934) (P03468 whole entry, looked up): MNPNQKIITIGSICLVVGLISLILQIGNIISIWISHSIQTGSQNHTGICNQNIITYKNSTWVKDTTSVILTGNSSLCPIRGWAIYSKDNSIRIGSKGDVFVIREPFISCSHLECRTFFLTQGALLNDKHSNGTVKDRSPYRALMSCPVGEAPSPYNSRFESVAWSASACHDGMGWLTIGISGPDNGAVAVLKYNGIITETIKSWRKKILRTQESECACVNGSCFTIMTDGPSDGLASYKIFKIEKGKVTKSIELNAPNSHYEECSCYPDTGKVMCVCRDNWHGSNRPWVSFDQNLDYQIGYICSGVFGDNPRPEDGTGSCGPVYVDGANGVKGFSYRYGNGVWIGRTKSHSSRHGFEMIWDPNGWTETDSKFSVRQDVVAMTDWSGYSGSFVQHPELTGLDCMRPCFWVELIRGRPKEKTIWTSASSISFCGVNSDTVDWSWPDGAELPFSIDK

The compound `CCC(CC)O[C@@H]1C=C(C(=O)O)C[C@H](NCc2ccc(OCc3cccc([N+](=O)[O-])c3)cc2)[C@H]1NC(C)=O` [Compound 12c, (3R,4R,5S)-4-acetamido-5-((4-((3-nitrobenzyl)oxy)benzyl)amino)-3-(pentan-3-yloxy)cyclohex-1-ene-1-carboxylic acid] yielded a half-inhibitory concentration (IC50) in data set [1] of 170 ± 6.8 nM.
As for `CCC(CC)O[C@@H]1C=C(C(=O)O)C[C@H](NCc2ccc(OCc3ccc(C(=O)O)c(OC)c3)cc2)[C@H]1NC(C)=O` [Compound 10c, 4-((4-((((1S,5R,6R)-6-acetamido-3-carboxy-5-(pentan-3-yloxy)cyclohex-3-en-1-yl)amino)methyl)phenoxy)methyl)-2-methoxybenzoic acid], the melting point is 190.5 to 195.1 °C (dec.). The same compound had an IC50 in data set [1] of 3590 ± 25 nM.
Take `CCC(CC)O[C@@H]1C=C(C(=O)O)C[C@H](NCc2ccc(OCc3ccc(C(=O)O)cc3)cc2)[C@H]1NC(C)=O` [Compound 6c, 4-((4-((((1S,5R,6R)-6-acetamido-3-carboxy-5-(pentan-3-yloxy)cyclohex-3-en-1-yl)amino)methyl)phenoxy)methyl)benzoic acid]: the melting point was 193.3 to 195.5 °C (dec.). In data set [1], this compound displayed an IC50 of 600 ± 130 nM.
Turning to `CCC(CC)O[C@@H]1C=C(C(=O)O)C[C@H](NCc2ccc(OCc3ccc(C(=O)O)cc3OC)cc2)[C@H]1NC(C)=O` [Compound 9c, 4-((4-((((1S,5R,6R)-6-acetamido-3-carboxy-5-(pentan-3-yloxy)cyclohex-3-en-1-yl)amino)methyl)phenoxy)methyl)-3-methoxybenzoic acid], the melting point is 171.2 to 175.7 °C (dec.). In data set [1], 3210 ± 380 nM corresponded to half-maximal inhibition (IC50).
`CCC(CC)O[C@@H]1C=C(C(=O)O)C[C@H](NCc2ccc(OCc3cc(C(=O)O)ccc3OC)cc2)[C@H]1NC(C)=O` [Compound 7c, 3-((4-((((1S,5R,6R)-6-acetamido-3-carboxy-5-(pentan-3-yloxy)cyclohex-3-en-1-yl)amino)methyl)phenoxy)methyl)-4-methoxybenzoic acid]: the IC50 in data set [1] is 14000 ± 930 nM.
`CCC(CC)O[C@@H]1C=C(C(=O)O)C[C@H](NCc2ccc(OCc3ccccc3C(=O)O)cc2)[C@H]1NC(C)=O` [Compound 4c, 2-((4-((((1S,5R,6R)-6-acetamido-3-carboxy-5-(pentan-3-yloxy)cyclohex-3-en-1-yl)amino)methyl)phenoxy)methyl)benzoic acid]: the melting point was 177.1 to 178.9 °C. Half-maximal inhibition in data set [1] (IC50) was put at 15000 ± 880 nM.
`CCC(CC)O[C@@H]1C=C(C(=O)O)C[C@H](NCc2ccc(OCc3ccc(S(N)(=O)=O)cc3)cc2)[C@H]1NC(C)=O` [Compound 17c, (3R,4R,5S)-4-acetamido-3-(pentan-3-yloxy)-5-((4-((4-sulfamoylbenzyl)oxy)benzyl)amino)cyclohex-1-ene-1-carboxylic acid]: half-maximal inhibition in data set [1] (IC50) required 27 ± 4.8 nM.
Same read-out and setting: then `CCC(CC)O[C@@H]1C=C(C(=O)O)C[C@H](NCc2ccc(OCc3cccc(C(=O)O)c3)cc2)[C@H]1NC(C)=O` [Compound 5c, 3-((4-((((1S,5R,6R)-6-acetamido-3-carboxy-5-(pentan-3-yloxy)cyclohex-3-en-1-yl)amino)methyl)phenoxy)methyl)benzoic acid], with 390 ± 40 nM.
With `CCC(CC)O[C@@H]1C=C(C(=O)O)C[C@H](NCc2ccc(OCc3ccc([N+](=O)[O-])cc3)cc2)[C@H]1NC(C)=O` [Compound 13c, (3R,4R,5S)-4-acetamido-5-((4-((4-nitrobenzyl)oxy)benzyl)amino)-3-(pentan-3-yloxy)cyclohex-1-ene-1-carboxylic acid], the melting point is 184.1 to 187.5 °C (dec.). The IC50 in data set [1] was 500 ± 63 nM.
As for `CCC(CC)O[C@@H]1C=C(C(=O)O)C[C@H](NCc2ccc(OCc3ccc(C(N)=O)cc3)cc2)[C@H]1NC(C)=O` [Compound 15c, (3R,4R,5S)-4-acetamido-5-((4-((4-carbamoylbenzyl)oxy)benzyl)amino)-3-(pentan-3-yloxy)cyclohex-1-ene-1-carboxylic acid], the IC50 in data set [1] was determined as 1730 ± 290 nM.
